Assays:
[1] = test system: mouse model of generalised seizure; assay: Maximal electroshock seizure threshold (MEST) test in the mouse, Example 3; conditions: CC50, 30 min pre-treatment
Protocol: The efficacy of CBD-C1 was tested in a mouse model of generalised seizure, the maximal electroshock seizure threshold (M EST) test, as in Example 2.
Naïve mice were acclimatised to the procedure room in their home cages for up to 7 days, with food and water available ad libitum.
All animals were weighed at the beginning of the study and randomly assigned to treatment groups based on a mean distribution of body weight across groups.
The first animal within a treatment group was given a shock at the expected or estimated CC50 current. For subsequent animals, the current was lowered or raised depending on the convulsions outcome from the preceding animal.
Data generated from each treatment group were used to calculate the CC50±SEM values for the treatment group.
Vehicle: (5% ethanol, 5% solutol, 90% Saline) was prepared as follows: 2 mL of ethanol, 2 mL of solutol were warmed to 60° C., in 36 mL of saline (1:1:18).
The test compound, CBD-C1 was prepared according to the method described in Example 1. […]
CBD-C1 effects were also calculated as percentage change in CC50 from the vehicle control group.
Significant difference between drug-treated animals and controls were assessed according to Litchfield and Wilcoxon (1949).

mouse model of seizure = assay: Maximal electroshock seizure threshold (MEST) test in the mouse, Example 2; conditions: CC50; 2.5 mg/kg i.p., 30 min pre-treatment
Protocol: The efficacy of CBD-C1 was tested in a mouse model of seizure, the maximal electroshock seizure threshold (MEST) test.
The maximal electroshock seizure threshold (MEST) test is widely utilized preclinically to evaluate pro- and anti-convulsant properties of molecules (Loscher et al., 1991).
In the MEST test the ability of a drug to alter the seizure threshold current required to induce hind limb tonic extensor convulsions is measured according to an “up and down” method of shock titration (Kimball et al., 1957). An increase in seizure threshold is indicative of anti-convulsant effect.
Naïve mice were acclimatised to the procedure room in their home cages, with food and water available ad libitum.
Animals were dosed i.p. according to dose group.
The vehicle (10 ml/kg i.p. 60 min pre-treatment time) was 1:1:18 vehicle 5% ethanol, 5% kolliphor EL, 90% saline. […]
Mice were individually assessed for the production of a tonic hind limb extensor seizure using a Hugo Sachs Electronik stimulator, which delivered an adjustable constant current (1-300 mA) of 0.1 s duration via corneal electrodes. […]
Induction of seizure is measured as an all-or-nothing effect scored as either present (+) or absent (0) for each animal.
Data was analysed by comparing treated groups with the appropriate vehicle control using Fisher's Exact Probability tests.

| SMILES | % change from vehicle ([1]; 250 mg/kg i.p.) | % change from vehicle (mouse model of seizure) | % change from vehicle ([1]; 2.5 mg/kg i.p.) |
| --- | --- | --- | --- |
| CCCC(CCC)C(=O)[O-].[Na+] [Sodium Valproate, sodium valproate, reference compound] | 1160% |  |  |
| CN1C(=O)CN=C(c2ccccc2)c2cc(Cl)ccc21 [Diazepam, diazepam, reference compound] |  | 68% | 247% |

Reference: patent publication US12396963B2, “Cannabidiol-type cannabinoid compound” (JAZZ PHARMACEUTICALS RESEARCH UK LIMITED, priority 2019, dated 2025)
